For experiment [1], the target named is T1, RXRα (Homo sapiens, UniProt P19793).
T1 sequence (P19793 1-462): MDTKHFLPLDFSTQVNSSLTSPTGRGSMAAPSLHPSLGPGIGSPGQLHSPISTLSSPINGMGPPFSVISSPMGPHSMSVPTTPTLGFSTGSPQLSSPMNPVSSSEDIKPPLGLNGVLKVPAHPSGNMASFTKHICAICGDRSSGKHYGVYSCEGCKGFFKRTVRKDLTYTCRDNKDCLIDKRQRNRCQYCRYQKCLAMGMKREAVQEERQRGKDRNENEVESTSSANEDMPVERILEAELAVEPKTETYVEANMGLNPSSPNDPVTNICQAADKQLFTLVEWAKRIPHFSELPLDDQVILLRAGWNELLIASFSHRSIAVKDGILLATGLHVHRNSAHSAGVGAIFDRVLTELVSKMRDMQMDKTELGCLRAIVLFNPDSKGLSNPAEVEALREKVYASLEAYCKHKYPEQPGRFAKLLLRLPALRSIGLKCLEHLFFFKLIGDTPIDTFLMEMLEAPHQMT
The experiment can be described thus: Retinoid activation assay, RXRα (Schneider SL-3 cells, luciferase reporter). The class given is cell-based. The following applies: read-out: Activation EC50 RXR α. The procedure:
(§1) Full length RXR cDNA is used for transfection. As reporter system, the luciferase gene is used in a construct with three copies of a RXR response element from rat CRBP gene, (formerly RARE from betaRAR gene), fused to alcoholdehydrogenase gene promoter in the plasmid pGL2-basic. Schneider SL-3 cells from Drosophila are transiently transfected 3-4 h before the experiment by the Ca-phosphate-DNA coprecipitation method. […] At the end of the incubation, the cell supernatants are assayed for luciferase activity. Results are given as EC50 (nM), the concentration leading to half-maximal activation.
On the technique in general: A reporter such as luciferase makes a cellular process visible.

Experiment [2] addresses T2, RXRβ (Homo sapiens, UniProt P28702).
T2 construct: Full length RXR cDNA is used for transfection; expressed in transfected cells; host or cells: Schneider SL-3 cells (Drosophila)
T2 sequence (P28702 1-533): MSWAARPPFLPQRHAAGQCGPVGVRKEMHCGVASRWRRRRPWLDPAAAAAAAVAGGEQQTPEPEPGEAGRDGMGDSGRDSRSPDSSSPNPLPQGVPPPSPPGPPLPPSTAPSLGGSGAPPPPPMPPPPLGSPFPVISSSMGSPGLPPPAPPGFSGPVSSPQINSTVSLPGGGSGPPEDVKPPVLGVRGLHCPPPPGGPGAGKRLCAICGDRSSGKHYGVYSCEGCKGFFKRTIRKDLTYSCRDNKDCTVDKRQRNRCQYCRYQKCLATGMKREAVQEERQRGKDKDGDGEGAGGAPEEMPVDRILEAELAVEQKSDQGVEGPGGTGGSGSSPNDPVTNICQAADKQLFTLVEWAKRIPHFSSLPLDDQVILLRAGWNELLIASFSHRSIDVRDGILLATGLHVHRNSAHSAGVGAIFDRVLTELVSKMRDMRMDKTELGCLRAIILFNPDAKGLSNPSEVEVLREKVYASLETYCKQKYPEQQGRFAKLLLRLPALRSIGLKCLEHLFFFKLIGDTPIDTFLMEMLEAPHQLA
The experiment can be described thus: Retinoid activation assay, RXRβ (Schneider SL-3 cells, luciferase reporter). It is filed as cell-based. The following applies: read-out: Activation EC50 RXR β. The procedure:
as §1

Experiment [3] concerns the target T3, RXRγ (Homo sapiens, UniProt P48443).
T3 sequence (P48443 1-463): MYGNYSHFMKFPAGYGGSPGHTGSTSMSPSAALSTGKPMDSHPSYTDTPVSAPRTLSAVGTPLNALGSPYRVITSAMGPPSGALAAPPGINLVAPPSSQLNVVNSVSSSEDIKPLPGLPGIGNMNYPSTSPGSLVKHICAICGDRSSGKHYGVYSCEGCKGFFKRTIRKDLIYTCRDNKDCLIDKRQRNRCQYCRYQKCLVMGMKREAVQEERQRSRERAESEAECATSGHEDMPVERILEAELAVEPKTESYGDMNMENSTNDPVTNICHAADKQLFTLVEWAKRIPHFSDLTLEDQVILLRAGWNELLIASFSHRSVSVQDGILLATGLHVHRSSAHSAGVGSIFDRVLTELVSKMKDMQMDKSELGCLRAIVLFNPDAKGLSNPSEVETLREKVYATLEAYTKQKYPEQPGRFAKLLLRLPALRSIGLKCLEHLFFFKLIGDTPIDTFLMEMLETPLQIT
The experiment can be described thus: Retinoid activation assay, RXRγ (Schneider SL-3 cells, luciferase reporter). The class given is cell-based. The following applies: read-out: Activation EC50 RXR γ. As for the experimental part: as §1

In experiment [4] the target is T4, RXRα Homodimer (Homo sapiens, UniProt P19793).
T4 construct: expressed in transfected cells; host or cells: mammalian cells (BHK21, CV1, etc)
T4 sequence (P19793 1-462): T1 sequence (P19793 1-462)
The experiment can be described thus: RXRα homodimer activation (transactivation) assay. It is filed as cell-based. The source says: (§2) Nuclear hormone receptor (NHR) ligand dependent transcriptional transactivation assay.
This secondary in vitro functional assay to characterize hits from the primary ligand binding screens is a GAL4-LBD transactivation assay. The Gal4-LBD protein consists of an in frame fusion of the transcription factor galactose 4 DNA binding domain from S.cerevisiae with the ligand binding domain (LBD) of a particular NHR. Briefly, a plasmid construct expressing the recombinant chimeric receptor is co-transfected into mammalian cells (BHK21, CV1, etc) with a luciferase reporter plasmid containing several copies in tandem of the GAL4 binding sites (promoter recognition elements) upstream from the minimal promoter driving the luciferase gene. The transfected cells are treated with compounds for 12-24 hours, lysates are produced and assayed for luciferase activity and normalized to internal standards such as GH, growth hormone or SEAP, secreted alkaline phosphatase. Ligand binding stabilizes the LBD conformation that recruits endogenous co-factors that mediate eventually the increased transcriptional activity of the luciferase reporter gene. By comparing the activation profile of a reference ligand or a natural ligand, the EC50 values for agonistic activity of a particular ligand can be measured. The extent of activation that can be measured is indicative of a partial, respectively full agonistic activity of a ligand. […]

Experiment [5] addresses T5, PPARγ/RXRα Heterodimer (Homo sapiens, UniProt P19793).
T5 construct: co-transfected with plasmids expressing the full length RXR heteropartner receptor; expressed in transfected cells
T5 sequence (P19793 1-462): T1 sequence (P19793 1-462)
T5 sequence (P37231 1-505 partner): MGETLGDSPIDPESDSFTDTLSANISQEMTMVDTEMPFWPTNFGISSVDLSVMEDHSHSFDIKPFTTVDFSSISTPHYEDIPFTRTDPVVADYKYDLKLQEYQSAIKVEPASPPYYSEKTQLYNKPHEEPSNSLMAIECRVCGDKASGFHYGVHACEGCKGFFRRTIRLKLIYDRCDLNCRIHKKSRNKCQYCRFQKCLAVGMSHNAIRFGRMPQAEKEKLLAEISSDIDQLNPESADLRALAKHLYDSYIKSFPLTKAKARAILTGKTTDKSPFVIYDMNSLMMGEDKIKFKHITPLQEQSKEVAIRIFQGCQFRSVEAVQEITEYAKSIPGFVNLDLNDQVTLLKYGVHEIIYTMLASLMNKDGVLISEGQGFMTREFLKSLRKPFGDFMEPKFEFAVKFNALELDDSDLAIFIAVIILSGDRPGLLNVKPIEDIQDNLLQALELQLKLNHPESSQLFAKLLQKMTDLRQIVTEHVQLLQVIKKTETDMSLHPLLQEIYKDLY
The experiment can be described thus: PPARγ/RXRα heterodimer activation (transactivation) assay. It is filed as cell-based.
Excerpt: as §2
Heterodimer reporter assays are potentially more important selection criteria for synthetic agonistic NHR ligands as they embody a more natural situation. Basically plasmids expressing the recombinant full length NHR are co-transfected with plasmids expressing the full length RXR heteropartner receptor and a reporter plasmid containing several copies of the natural responsive elements for the respective NHR driving the luciferase reporter gene.

The target of experiment [6] is T1, RXRα. The experiment can be described thus: Retinoid binding assay, RXRα. The conditions noted are these: [3H] 9-cis retinoic acid 20 nM; read-out: Binding Affinity IC50 RXR α. Also on record: made in house; host or cells: E. coli. From the text:
(§3) The DEF domains of RAR's and the full length RXR's, expressed in E.coli, are used to measure competitive retinoid binding. […] 9-cis retinoic acid (for RXR's), respectively. […] Separation of bound from free radioactivity is achieved by charcoal/dextran (RAR's) or by desalting columns (RXR's). […] Retinoid Activation Assays

The target of experiment [7] is T3, RXRγ. The experiment can be described thus: Retinoid binding assay, RXRγ. The following applies: [3H] 9-cis retinoic acid 20 nM; read-out: Binding Affinity IC50 RXR γ. Also on record: made in house; host or cells: E. coli.
Excerpt: as §3

Experiment [8] concerns the target T6, RARγ (Homo sapiens, UniProt P13631).
T6 construct: The DEF domains of RAR's and the full length RXR's, expressed in E.coli; made in house; host or cells: E. coli
T6 sequence (P13631 185-419 limits assumed): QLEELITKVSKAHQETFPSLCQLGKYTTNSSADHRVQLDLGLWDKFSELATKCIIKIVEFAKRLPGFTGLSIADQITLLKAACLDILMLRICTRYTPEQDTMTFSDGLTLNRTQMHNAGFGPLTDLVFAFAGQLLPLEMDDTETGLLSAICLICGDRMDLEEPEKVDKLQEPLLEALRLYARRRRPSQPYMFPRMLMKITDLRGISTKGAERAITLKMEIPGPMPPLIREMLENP
The experiment can be described thus: Retinoid binding assay, RARγ. The following applies: read-out: Binding Affinity IC50 RAR γ.
Excerpt: as §3

Experiment [9] addresses T7, RARα (Homo sapiens, UniProt P10276).
T7 sequence (P10276 183-417 limits assumed): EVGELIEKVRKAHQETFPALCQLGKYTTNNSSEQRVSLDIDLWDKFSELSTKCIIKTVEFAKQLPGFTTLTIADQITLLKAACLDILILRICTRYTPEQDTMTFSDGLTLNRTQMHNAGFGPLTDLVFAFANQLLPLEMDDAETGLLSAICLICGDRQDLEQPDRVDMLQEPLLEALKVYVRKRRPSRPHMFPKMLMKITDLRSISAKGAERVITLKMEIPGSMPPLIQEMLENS
The experiment can be described thus: Retinoid binding assay, RARα. Also noted: The DEF domains of RAR's and the full length RXR's, expressed in E.coli; made in house; host or cells: E. coli. The following applies: read-out: Binding Affinity IC50 RAR α.
Excerpt: as §3

Experiment [10] addresses T8, RARβ (Homo sapiens, UniProt P10826).
T8 sequence (P10826 183-417 limits assumed): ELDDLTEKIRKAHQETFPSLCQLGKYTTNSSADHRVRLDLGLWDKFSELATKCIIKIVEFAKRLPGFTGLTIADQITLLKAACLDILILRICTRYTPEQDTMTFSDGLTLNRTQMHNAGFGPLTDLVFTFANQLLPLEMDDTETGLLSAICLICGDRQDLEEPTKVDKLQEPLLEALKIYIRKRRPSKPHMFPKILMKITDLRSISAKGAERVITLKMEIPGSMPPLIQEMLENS
The experiment can be described thus: Retinoid binding assay, RARβ. Also noted: The DEF domains of RAR's and the full length RXR's, expressed in E.coli; made in house; host or cells: E. coli. The following applies: read-out: Binding Affinity IC50 RAR β.
Excerpt: as §3

In the case of `CCc1cc2c(cc1\C(C)=C/C=C/C(C)=C/C(=O)O)CCCC2C` (racemic) [Compound 11, (2E,4E,6Z)-(RS)-7-(3-Ethyl-5-methyl-5,6,7,8-tetrahydro-naphthalen-2-yl)-3-methyl-octa-2,4,6-trienoic acid], the EC50 in experiment [1] came out at 2.1 nM; in experiment [2], 17 nM; in [3] it was 37 nM; in experiment [4], 2 nM; in experiment [5], 10 nM. The values for the IC50 in experiment [6] and in experiment [7] were 65 nM and 56 nM, respectively.
For the compound `CCCOc1cc2c(cc1\C(C)=C/C=C/C(C)=C/C(=O)O)C(C)(C)CCC2(C)C` [Compound 23, (2E,4E,6Z)-3-Methyl-7-(5,5,8,8-tetramethyl-3-propoxy-5,6,7,8-tetrahydro-naphthalen-2-yl)-octa-2,4,6-trienoic acid], the IC50 came to 2800 nM in [8], 68 nM in experiment [7], 3100 nM in experiment [9] and 3500 nM in experiment [10]. Further, the EC50 in experiment [2] and in [3] was over 10000 nM each time.
On to `CCCOc1cc2c(cc1[C@@H]1C[C@@H]1/C=C/C(C)=C/C(=O)O)C(C)(C)CCC2(C)C` (racemic) [Compound 22, (2E,4E)-3-Methyl-5-[(1RS,2RS)-2-(5,5,8,8-tetramethyl-3-propoxy-5,6,7,8-tetrahydro-naphthalen-2-yl)-cyclopropyl]-penta-2,4-dienoic acid], for which the EC50 in experiment [1] was over 10000 nM; in experiment [2] it was over 10000 nM; in experiment [3], over 10000 nM; in experiment [4], over 10000 nM; in [5] it was over 30 nM. The IC50 was found to be 300 nM in experiment [6] and 700 nM in experiment [7].
On to `CC(/C=C/[C@@H]1C[C@@H]1c1ccc2c(c1)C(C)(C)CCC2(C)C)=C\C(=O)O` (stereo in doubt) [Compound 10, (2E,4E)-3-Methyl-5-[(1S,2S)-2-(5,5,8,8-tetramethyl-5,6,7,8-tetrahydro-naphthalen-2-yl)-cyclopropyl]-penta-2,4-dienoic acid], for which the EC50 in [1] was 2.6 nM; in experiment [2] it was 28 nM; in experiment [3] it was 65 nM; in [4], 2.6 nM; in experiment [5] it was 6 nM. Further, the IC50 came to 110 nM in [6] and 122 nM in experiment [7].

As usually defined, the EC50 is the concentration at which the effect is half-maximal. The IC50 is the concentration that gives 50% inhibition.

For the origin of these results see patent US20080255206A1, “Rxr Agonists and Antagonists, Alone or in Combination with Ppar Ligands, in the Treatment of Metabolic and Cardiovascular Diseases” (priority 2005, published 2008).
